For assay [1], the target named is T1, K-Ras G12V (Homo sapiens, UniProt P01116, G12V). The assay is described as follows: SOS1 catalyzed nucleotide exchange assay (GDP form K-Ras), K-Ras G12V. Particulars: read-out: K-Ras G12V GDP Biochemical Activity (IC50).
The target of the next assay is K-Ras G12D (Homo sapiens, UniProt P01116, G12D). The experiment in a line: biochemical.
A further assay has as its target K-Ras WT (Homo sapiens, UniProt P01116). The assay is described as follows: SOS1 catalyzed nucleotide exchange assay (GDP form K-Ras), K-Ras WT. To be noted: read-out: K-Ras WT GDP Biochemical Activity (IC50).
Assay [2] deals with T1, K-Ras G12V. The experiment in a line: biochemical.
A further assay deals with SW620 cells (K-Ras G12V). The experiment in a line: 2D cell growth inhibition assay, SW620. It is filed as cell-based. To be noted: Homo sapiens, SW-620, 144 h, 6 days, absolute IC50.
The subject of assay [3] is AsPC-1 cells (K-Ras G12D). The assay is described as follows: 2D cell growth inhibition assay, AsPC-1. It is filed as cell-based. Particulars: Homo sapiens, ASPC1, 144 h, AsPC-1, K-Ras G12D, 6 days, absolute IC50.
In assay [4] the test system is p-ERK in AGS cells (K-Ras G12D). The experiment in a line: Phospho-ERK1/2(THR202/TYR204) HTRF assay, AGS. It is filed as cell-based. To be noted: Homo sapiens, 2 h, 2 hours incubation.
Assay [5] deals with p-ERK in SW620 cells (K-Ras G12V). The assay is described as follows: Phospho-ERK1/2(THR202/TYR204) HTRF assay, SW620. It is filed as cell-based. To be noted: Homo sapiens, SW-620, 2 h, 2 hours incubation.
The subject of the next assay is AGS cells (K-Ras G12D). The experiment in a line: 2D cell growth inhibition assay, AGS. The assay is classed as cell-based. To be noted: Homo sapiens, 144 h, 6 days, absolute IC50.

The results in this text go back to patent US20250019377A1 (JACOBIO PHARMACEUTICALS CO., LTD, priority 2021, published 2025).

Usually IC50 stands for the concentration needed to halve the response being measured.

K-Ras WT, sequence (P01116 1-169 isoform P01116-2): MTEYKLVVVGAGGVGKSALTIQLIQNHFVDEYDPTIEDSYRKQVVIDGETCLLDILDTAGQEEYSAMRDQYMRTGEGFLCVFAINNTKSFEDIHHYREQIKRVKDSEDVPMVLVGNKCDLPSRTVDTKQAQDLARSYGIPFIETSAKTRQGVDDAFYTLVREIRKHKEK
T1 sequence (P01116 1-169 isoform P01116-2 G12V): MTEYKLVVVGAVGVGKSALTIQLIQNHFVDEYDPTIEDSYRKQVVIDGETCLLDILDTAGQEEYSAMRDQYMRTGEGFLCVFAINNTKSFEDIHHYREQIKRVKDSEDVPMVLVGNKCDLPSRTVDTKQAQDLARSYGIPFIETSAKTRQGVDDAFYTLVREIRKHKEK
K-Ras G12D, sequence (P01116 1-169 isoform P01116-2 G12D): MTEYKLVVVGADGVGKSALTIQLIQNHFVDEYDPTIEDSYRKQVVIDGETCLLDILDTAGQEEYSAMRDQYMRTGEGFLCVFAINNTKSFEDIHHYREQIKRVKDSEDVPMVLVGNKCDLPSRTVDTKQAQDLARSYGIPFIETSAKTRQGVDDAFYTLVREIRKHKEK

Regarding `C#Cc1c(F)ccc2cc(OC(=O)NC)cc(-c3ncc4c(N5CCCOCC5)nc(OC[C@@]56CCCN5C[C@H](F)C6)nc4c3F)c12` [Compound 67, 5-ethynyl-6-fluoro-4-(8-fluoro-2-(((2R,7aS)-2-fluorotetrahydro-1H-pyrrolizin-7a(5H)-yl)methoxy)-4-(1,4-oxazepan-4-yl)pyrido[4,3-d]pyrimidin-7-yl)naphthalen-2-yl methylcarbamate trifluoroacetic acid], the figures for the IC50 at K-Ras G12V [1] and against K-Ras G12D were 7.32 nM and 5.5 nM, respectively.
The matching figures for `C#Cc1c(F)ccc2cc(OS(=O)(=O)c3ccccc3)cc(-c3ncc4c(N5CCCOCC5)nc(OC[C@@]56CCCN5C[C@H](F)C6)nc4c3F)c12` [Compound 68, 5-ethynyl-6-fluoro-4-(8-fluoro-2-(((2R,7aS)-2-fluorotetrahydro-1H-pyrrolizin-7a(5H)-yl)methoxy)-4-(1,4-oxazepan-4-yl)pyrido[4,3-d]pyrimidin-7-yl)naphthalen-2-yl benzenesulfonate trifluoroacetic acid]: 1130 nM and 438 nM.
As for `C#Cc1c(F)ccc2cc(O)cc(-c3ncc4c(N5CCCOCC5)nc(OCC56CCCN5CC(N(C)C)C6)nc4c3F)c12` (centres unmarked) [Compound 83], the IC50 at K-Ras G12V [1] is 3.11 nM; at K-Ras WT, 8.04 nM; against K-Ras G12V [2] it was 343 nM.
Turning to `C#Cc1c(F)ccc2cc(OC(=O)CN(C)C)cc(-c3ncc4c(N5CCCOCC5)nc(OC[C@@]56CCCN5C[C@H](F)C6)nc4c3F)c12` [Compound 61, 5-ethynyl-6-fluoro-4-(8-fluoro-2-(((2R,7aS)-2-fluorotetrahydro-1H-pyrrolizin-7a(5H)-yl)methoxy)-4-(1,4-oxazepan-4-yl)pyrido[4,3-d]pyrimidin-7-yl)naphthalen-2-yl dimethylglycinate trifluoroacetic acid], the concentration for half-maximal inhibition (IC50) at K-Ras G12V [1] is 1.28 nM; at K-Ras G12D, 0.653 nM.
`C#Cc1c(F)ccc2cc(O)cc(-c3ncc4c(N5CCOCC(C(F)(F)F)C5)nc(OC[C@@]56CCCN5C[C@H](F)C6)nc4c3F)c12` (stereo partly drawn) [Compound 125, 5-ethynyl-6-fluoro-4-(8-fluoro-2-(((2R,7aS)-2-fluorotetrahydro-1H-pyrrolizin-7a(5H)-yl)methoxy)-4-(6-(trifluoromethyl)-1,4-oxazepan-4-yl)pyrido[4,3-d]pyrimidin-7-yl)naphthalen-2-ol]: the half-maximal inhibitory concentration (IC50) on K-Ras G12V [1] turned out to be 3.35 nM; in the assay on SW620 cells (K-Ras G12V) it was 31.6 nM; in assay [3] it was 124 nM; in [4] it was 9.51 nM; in [5], 22.5 nM; at K-Ras WT it was 2.16 nM. Further, the IC50 in the assay with AGS cells (K-Ras G12D) worked out at 18.4 nM; against K-Ras G12V [2], 286 nM.
As to `C#Cc1c(F)ccc2cc(OP(=O)(OCC)OCC)cc(-c3ncc4c(N5CCCOCC5)nc(OC[C@@]56CCCN5C[C@H](F)C6)nc4c3F)c12` [Compound 75, diethyl (5-ethynyl-6-fluoro-4-(8-fluoro-2-(((2R,7aS)-2-fluorotetrahydro-1H-pyrrolizin-7a(5H)-yl)methoxy)-4-(1,4-oxazepan-4-yl)pyrido[4,3-d]pyrimidin-7-yl)naphthalen-2-yl) phosphate trifluoroacetic acid], the 50% inhibitory concentration (IC50) at K-Ras G12V [1] was found to be 51.4 nM; at K-Ras G12D it was 38.4 nM.
As for `C#Cc1c(F)ccc2cc(O)cc(-c3ncc4c(N5CCOCC(N(C)C)C5)nc(OC[C@@]56CCCN5C[C@H](F)C6)nc4c3F)c12` (stereo partly drawn) [Compound 26, 4-(4-(6-(dimethylamino)-1,4-oxazepan-4-yl)-8-fluoro-2-(((2R,7aS)-2-fluorotetrahydro-1H-pyrrolizin-7a(5H)-yl)methoxy)pyrido[4,3-d]pyrimidin-7-yl)-5-ethynyl-6-fluoronaphthalen-2-ol], the half-inhibitory concentration (IC50) at K-Ras G12V [1] was found to be 5.77 nM; at K-Ras WT it was 4.72 nM; against K-Ras G12V [2], 4150 nM.
As for `C#Cc1c(F)ccc2cc(OCc3cn(C)c([N+](=O)[O-])n3)cc(-c3ncc4c(N5CCCOCC5)nc(OC[C@@]56CCCN5C[C@H](F)C6)nc4c3F)c12` [Compound 139, 4-(7-(8-ethynyl-7-fluoro-3-((1-methyl-2-nitro-1H-imidazol-4-yl)methoxy)naphthalen-1-yl)-8-fluoro-2-(((2R,7aS)-2-fluorotetra-hydro-1H-pyrrolizin-7a(5H)-yl)methoxy)pyrido[4,3-d]pyrimidin-4-yl)-1,4-oxazepane], the IC50 at K-Ras G12V [1] was 92.7 nM; at K-Ras G12D, 112 nM.
Regarding `C#Cc1c(F)ccc2cc(O)cc(-c3ncc4c(N5CCOC/C(=C/C)C5)nc(OC[C@@]56CCCN5C[C@H](F)C6)nc4c3F)c12` [Compound 124, 4-(4-((E)-6-ethylidene-1,4-oxazepan-4-yl)-8-fluoro-2-(((2R,7aS)-2-fluorotetrahydro-1H-pyrrolizin-7a(5H)-yl)methoxy)pyrido [4,3-d]pyrimidin-7-yl)-5-ethynyl-6-fluoro-naphthalen-2-ol], the IC50 was 2.57 nM at K-Ras G12V [1]; 45.7 nM in the assay on SW620 cells (K-Ras G12V); 784 nM in [3]; 34.2 nM in assay [4]; 21.8 nM in assay [5]; 5.02 nM on K-Ras WT. The half-maximal inhibitory concentration (IC50) in the assay on AGS cells (K-Ras G12D) worked out at 80.8 nM; at K-Ras G12V [2], 805 nM.
For the compound `C#Cc1c(F)ccc2cc(O)cc(-c3ncc4c(N5CC(F)COCC5C)nc(OC[C@@]56CCCN5C[C@H](F)C6)nc4c3F)c12` (stereo partly drawn) [Compound 31, 5-ethynyl-6-fluoro-4-(8-fluoro-4-(6-fluoro-3-methyl-1,4-oxazepan-4-yl)-2-(((2R,7aS)-2-fluorotetrahydro-1H-pyrrolizin-7a(5H)-yl)methoxy)pyrido[4,3-d]pyrimidin-7-yl)naphthalen-2-ol], the IC50 at K-Ras G12V [1] is 2.47 nM; with SW620 cells (K-Ras G12V) it was 22.6 nM; in [3], 60.9 nM; in [4], 3.62 nM; in assay [5] it was 12.8 nM; at K-Ras WT it was 2.61 nM. Also, the IC50 in the assay on AGS cells (K-Ras G12D) was found to be 5.92 nM; on K-Ras G12V [2], 49.1 nM.
For the compound `C#Cc1c(F)ccc2cc(O)cc(-c3ncc4c(N5CCOCCC5C)nc(OC[C@@]56CCCN5C[C@H](F)C6)nc4c3F)c12` (stereo partly drawn) [Compound 22, 5-ethynyl-6-fluoro-4-(8-fluoro-2-(((2R,7aS)-2-fluorotetrahydro-1H-pyrrolizin-7a(5H)-yl)methoxy)-4-(5-methyl-1,4-oxazepan-4-yl)pyrido[4,3-d]pyrimidin-7-yl)naphthalen-2-ol trifluoroacetic acid], the IC50 at K-Ras G12V [1] worked out at 3.2 nM; with SW620 cells (K-Ras G12V), 64.3 nM; in [3] it was 782 nM; in [4], 70.7 nM; in assay [5], 13.2 nM; on K-Ras WT, 4.05 nM. The concentration for half-maximal inhibition (IC50) was determined as 175 nM in the assay with AGS cells (K-Ras G12D) and 1440 nM against K-Ras G12V [2].
On to `C#Cc1c(F)ccc2cc(O)cc(-c3c(Cl)cc4c(N5CCCOCC5)nc(OC[C@@]56CCCN5C[C@H](F)C6)nc4c3F)c12` [Compound 19, 4-(6-chloro-8-fluoro-2-(((2R,7aS)-2-fluorotetrahydro-1H-pyrrolizin-7a(5H)-yl)methoxy)-4-(1,4-oxazepan-4-yl)quinazolin-7-yl)-5-ethynyl-6-fluoronaphthalen-2-ol trifluoroacetic acid], for which the half-maximal inhibitory concentration (IC50) on K-Ras G12V [1] was 9.69 nM; with SW620 cells (K-Ras G12V), 119 nM; in [3], 2370 nM; in assay [4], 47.9 nM; in assay [5], 52.5 nM; at K-Ras WT it was 16.3 nM. The half-inhibitory concentration (IC50) was 5510 nM in the assay on AGS cells (K-Ras G12D) and 221 nM against K-Ras G12V [2].
With `C#Cc1c(F)ccc2cc(O)cc(-c3ncc4c(N5CCOCC(F)(F)C5)nc(OC[C@@]56CCCN5C[C@H](F)C6)nc4c3F)c12` [Compound 18, 4-(4-(6,6-difluoro-1,4-oxazepan-4-yl)-8-fluoro-2-(((2R,7aS)-2-fluorotetrahydro-1H-pyrrolizin-7a(5H)-yl)methoxy)pyrido[4,3-d]pyrimidin-7-yl)-5-ethynyl-6-fluoronaphthalen-2-ol trifluoroacetic acid], the concentration for half-maximal inhibition (IC50) on K-Ras G12V [1] came to 1.41 nM; with SW620 cells (K-Ras G12V), 5.68 nM; in [3] it was 95.7 nM; in assay [4] it was 5.99 nM; in assay [5], 2.1 nM; in the assay with AGS cells (K-Ras G12D), 7.96 nM. This compound registered an IC50 against K-Ras G12V [2] of 107 nM.
As for `C#Cc1c(F)ccc2cc(OC(=O)N(C)CCNC)cc(-c3ncc4c(N5CCCOCC5)nc(OC[C@@]56CCCN5C[C@H](F)C6)nc4c3F)c12` [Compound 54, 5-ethynyl-6-fluoro-4-(8-fluoro-2-(((2R,7aS)-2-fluorotetrahydro-1H-pyrrolizin-7a(5H)-yl)methoxy)-4-(1,4-oxazepan-4-yl)pyrido[4,3-d]pyrimidin-7-yl)naphthalen-2-yl methyl(2-(methylamino)ethyl)carbamate trifluoroacetic acid], half-maximal inhibition against K-Ras G12D (IC50) required 1.01 nM.
For `C#Cc1c(F)ccc2cc(O)cc(-c3nc(OC4CC4)c4c(N5CCCOCC5)nc(OC[C@@]56CCCN5C[C@H](F)C6)nc4c3F)c12` [Compound 51, 4-(5-cyclopropoxy-8-fluoro-2-(((2R,7aS)-2-fluorotetrahydro-1H-pyrrolizin-7a(5H)-yl)methoxy)-4-(1,4-oxazepan-4-yl)pyrido[4,3-d]pyrimidin-7-yl)-5-ethynyl-6-fluoronaphthalen-2-ol trifluoroacetic acid], the 50% inhibitory concentration (IC50) on K-Ras G12V [1] turned out to be 1.69 nM; in the assay on SW620 cells (K-Ras G12V), 10.3 nM; in assay [3] it was 74.2 nM; in assay [4], 2.27 nM; in [5], 8.5 nM; with AGS cells (K-Ras G12D), 9.66 nM. Besides, half-maximal inhibition against K-Ras G12V [2] (IC50) required 22 nM.
